In patent publication US12043625B2, “Pyridine derivatives with c-linked cyclic substituents as cGAS inhibitors” (BOEHRINGER INGELHEIM INTERNATIONAL GMBH, priority 2021, dated 2024):

Key:
[1] = target: Human cGAS (Homo sapiens (Human), UniProt Q8N884); assay: Human cGAS enzyme assay (hcGAS IC50, in vitro), cGAMP formation by RapidFire MS; format: biochemical; settings: 45 bp dsDNA, GTP/ATP;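 further: compounds preincubated 60 min, then GTP and ATP (30 µM each) added for 90 min at room temperature, cGAMP read relative to cyclic-di-GMP internal standard, no-enzyme/DNA wells as 0%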
[2] = test system: IFN induction in virus-stimulated THP1 cells; assay: Human cGAS cell assay, baculovirus-stimulated THP1-Dual cells, Lucia luciferase reporter (THP1(vir) IC50); format: cell-based; settings: for IC50: Homo sapiens, THP-1, baculovirus-stimulated THP1-Dual cells, 18 h; for Ratio THP(cGAMP) IC50/THP(vir) IC50: selectivity for cGAS inhibition;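 on all read-outs here: IRF-dependent luminescence, 8 concentrations up to 10 µM in 1% DMSO, 0% = unstimulated cells, 100% = DMSO plus virus, counter assay stimulated with cGAMP downstream of cGAS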
From the text: THP1-Dual™ cells (InvivoGen #thpd-nfis) expressing IRF dependent Lucia luciferase reporter were used as basis for both assays. For the detection of cellular cGAS activity cells were stimulated by a baculovirus (pFastbac-1, Invitrogen, no coding insert) infection that delivers the cGAS enzyme stimulating double-stranded DNA (measurement of THP1(vir) IC50).
(§1) For the counter assay, cells were stimulated by cGAMP (SigmaAldrich #SML1232) to activate the identical pathway independent and directly downstream of cGAS (measurement of THP1(cAMP) IC50). Pathway activity was monitored by measuring the Lucia luciferase activity induced by either DNA stimulated cGAS enzyme activity (measurement of THP1^(vir) IC50) or by cGAMP directly (measurement of THP1(cAMP) IC50, counter assay).
Typically, 8 concentrations were used with the highest concentration at 10 μM in the final assay volume followed by ˜1:5 dilution steps. DMSO concentration was set to 1% in the final assay volume. The 384 well assay plate contained 21 test compounds (column 1-22), and DMSO in column 23 and 24.
The baculovirus solution was then added 1:200 (may have varied according to virus batch) to the cells (measurement of THP1(vir) IC50).
(§2) 30 μL of the cell/virus-mix were added to each well of the compound plate from column 1-23 via MultiDrop Combi dispenser (5000 cells/well). In column 24, 30 μl/5000 cells/well without virus were added as a low control.
(§3) The plates were then incubated for 18 h at 37° C. in a humidified incubator.
(§4) Following that, 15 μL of QuantiLuc detection reagent (InvivoGen #rep-qlcg5) were added to each well using a MultiDrop Combi. Measurement was done immediately after the addition using an EnVision reader (US-luminescence read-mode).
Data Evaluation and Calculation:
(§5) For data evaluation and calculation, the measurement of the low control was set as 0% control and the measurement of the high control was set as 100% control. The IC50 values were calculated using the standard 4 parameter logistic regression formula. Calculation: [y=(a−d)/(1+(x/c)^b)+d], a=low value, d=high value; x=conc M; c=1C50 M; b=slope

[3] = test system: IFN induction in cGAMP-stimulated THP1 cells; assay: cGAMP stimulated counter cell assay, THP1-Dual cells, Lucia luciferase reporter (THP1(cGAMP) IC50); format: cell-based; settings: Homo sapiens, THP-1, THP1-Dual cells stimulated with 10 μM cGAMP;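 further: IRF-driven Lucia luciferase luminescence after 18 h at 37° C, compound series topping at 10 µM with 1% DMSO, unstimulated wells as 0% and DMSO wells as 100%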
From the text: 6.2 Method: Human cGAS Cell Assay and cGAMP Stimulated Counter Cell Assay (THP1(vir) IC50 and THP1(cGAMP) IC50)
THP1-Dual™ cells (InvivoGen #thpd-nfis) expressing IRF dependent Lucia luciferase reporter were used as basis for both assays.
as §1
Compounds were delivered in 10 mM DMSO solution, serially diluted and transferred to the 384 well assay plate (Greiner #781201) using an Echo acoustic dispenser. Typically, 8 concentrations were used with the highest concentration at 10 μM in the final assay volume followed by ˜1:5 dilution steps. DMSO concentration was set to 1% in the final assay volume. The 384 well assay plate contained 21 test compounds (column 1-22), and DMSO in column 23 and 24.
as §2, §3, §4
Data Evaluation and Calculation:
as §5

[4] = test system: IFN induction in dsDNA-stimulated human whole blood; assay: Human whole blood assay, dsDNA transfection, IFNα2a production (hWB IC50); format: cell-based;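 further: cGAS pathway activity, IFNα2a in plasma by MSD immunoassay after 22 h at 37 °C, 8 concentrations up to 10 µM in 0.1% DMSO, DMSO controls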
Method: For the detection of cellular cGAS activity human whole blood was stimulated by transfection with double stranded DNA. Pathway activity was monitored by measuring the IFNα2α production.
Typically, 8 concentrations were used with the highest concentration at 10 μM in the final assay volume followed by ˜1:5 dilution steps. DMSO concentration was set to 0.1% in the final assay volume. The 96-well assay plate contained 10 test compounds, and DMSO in control wells.
Whole blood was kept at room temperature for a maximum of 3 hours after collection until use in the assay.
160 μl of the whole blood samples was transferred to each well of the 96-well assay plates filled with compound/OptiMEM. All assay plates were prepared as duplicates with blood from different donors. Blood plates were kept at room temperature for 60 minutes and continuous shaking with 450 rpm, covered with the lid, but not sealed.
20 μl OptiMEM and 9.6:1 Fugene was added to all low control wells.
After covering assay plates with aera seals and the lid, blood plates were kept at room temperature for 30 minutes and continuous shaking with 450 rpm, followed by an overnight incubation of 22 h at 37° C. in the incubator, without shaking.
U-Plex MSD GOLD 96-well Small Spot Strepavidin SECTOR Plates (Meso Scale Diagnostics #L45SA-5) were coated with 25 μl diluted capture antibody. Coated plates were incubated for 60 min at room temperature under continuous shaking at 700 rpm. MSD IFNα-2a plates were washed three times with 150 μl wash buffer (1×HBSS, 0.05% Tween).
After blocking the plates with 100 μl block solution/well (1×HBSS with 0.2% Tween, 2% BSA) for 60 min at room temperature and continuous shaking at 700 rpm, plates were emptied as dry as possible by dumping just before continuing with the human plasma.
Whole Blood assay plates were centrifuged at 1600 rpm for 10 minutes. 25 μl of supernatant was transferred with a pipetting robot from each whole blood plate to the corresponding IFNα-2a plate.
Plates were sealed with microplate seals and kept at room temperature again under continuous shaking at 700 rpm for two hours.
Next MSD IFNα-2a plates were washed three times with 150 μl wash buffer (1×HBSS, 0.05% Tween), before adding 25 μl MSD SULFO-TAG IFNα-2a Antibody solution (1:100 diluted in Diluent 3 (Meso Scale Diagnostics #R50AP-2) to each well of the plates.
Afterwards plates were sealed with microplate seals and kept at room temperature again under continuous shaking at 700 rpm for two hours. Finally, MSD IFNα-2α plates were washed three times with 150 μl wash buffer (1×HBSS, 0.05% Tween). 150 μl 2× Read buffer was added to each well and plates were immediately measured with the MSD Sector S600 Reader using the vendor barcode.
For data evaluation and calculation, % control calculation of each well was based on the mean of high (DNA stimulated control) and mean of low (unstimulated control) controls by using the following formula: [counts(sample)−counts(low))/(counts(high)−counts(low))]*100
The IC50 values were calculated using the standard 4 parameter logistic regression formula. Calculation: [y=(a−d)/(1+(x/c)^b)+d], a=low value, d=high value; x=conc M; c=1C50 M; b=slope

Human cGAS, sequence (Q8N884 whole entry): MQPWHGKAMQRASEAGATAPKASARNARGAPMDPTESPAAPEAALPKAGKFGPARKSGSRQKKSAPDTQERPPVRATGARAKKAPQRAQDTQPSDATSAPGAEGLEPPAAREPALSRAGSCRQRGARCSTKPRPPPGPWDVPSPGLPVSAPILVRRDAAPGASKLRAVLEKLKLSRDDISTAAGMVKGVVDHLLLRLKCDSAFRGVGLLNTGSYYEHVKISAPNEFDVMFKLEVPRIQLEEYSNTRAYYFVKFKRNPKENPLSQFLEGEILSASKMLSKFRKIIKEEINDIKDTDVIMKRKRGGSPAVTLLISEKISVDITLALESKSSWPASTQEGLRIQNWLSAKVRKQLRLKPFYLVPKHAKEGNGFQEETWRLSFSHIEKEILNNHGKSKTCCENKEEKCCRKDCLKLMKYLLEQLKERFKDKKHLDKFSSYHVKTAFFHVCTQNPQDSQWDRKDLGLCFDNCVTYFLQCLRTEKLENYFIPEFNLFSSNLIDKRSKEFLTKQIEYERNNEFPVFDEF

With `O=C(O)[C@@H]1C[C@H](Oc2ncc(Br)cc2C2(F)CCS(=O)(=O)CC2)CN1c1nc(C(F)F)nc2c1oc1ccccc12` [Example 2.04] the IC50 [1] was 5 nM, the IC50 [2] was 638 nM and the “Ratio THP(cGAMP) IC50/THP(vir) IC50” value [2] was >26. For the same compound, the IC50 [3] was > 16600 nM and the IC50 [4] was 115 nM.
For `N#CN1CCC(F)(c2cc(Cl)cnc2O[C@H]2C[C@@H](C(=O)O)N(c3nc(C(F)F)nc4c3oc3ccccc34)C2)CC1` [Example 2.05], the IC50 [1] was 6 nM, the IC50 [2] was 718 nM and the “Ratio THP(cGAMP) IC50/THP(vir) IC50” value [2] was 23. It also gave an IC50 [3] of 16700 nM and an IC50 [4] of 945 nM.
With `CO[C@]1(c2cc(Cl)cnc2O[C@H]2C[C@@H](C(=O)O)N(c3nc(C(F)F)nc4c3oc3ccccc34)C2)CCS(=O)(=O)C[C@@H]1C` [Example 2.06] the IC50 [1] was 8 nM, the IC50 [2] was 314 nM and the “Ratio THP(cGAMP) IC50/THP(vir) IC50” value [2] was 46. The IC50 [3] was 14600 nM and the IC50 [4] was 287 nM.
`C#Cc1cnc(O[C@H]2C[C@@H](C(=O)O)N(c3nc(C(F)(F)F)nc4c3oc3ccccc34)C2)c(C2(F)CCS(=O)(=O)CC2)c1` [Example 2.07] was tested, and the IC50 [1] was 2 nM, the IC50 [2] was 688 nM and the “Ratio THP(cGAMP) IC50/THP(vir) IC50” value [2] was >24. The IC50 [3] was > 16600 nM and the IC50 [4] was 97 nM.
In the case of `CC1(C)C[C@](F)(c2cc(Cl)cnc2O[C@H]2C[C@@H](C(=O)O)N(c3nc(C(F)F)nc4c3oc3ccccc34)C2)CCS1(=O)=O` [Example 2.08], the IC50 [1] is reported as 5 nM, the IC50 [2] is reported as 25 nM and the “Ratio THP(cGAMP) IC50/THP(vir) IC50” value [2] is reported as 479. For the same compound, the IC50 [3] was 12000 nM and the IC50 [4] was 28 nM.
In the case of `CC1(C)C[C@](F)(c2cc(Cl)cnc2O[C@H]2C[C@@H](C(=O)O)N(c3nc(C(F)(F)F)nc4c3oc3ccccc34)C2)CCS1(=O)=O` [Example 2.09], the IC50 [1] is reported as 11 nM, the IC50 [2] is reported as 168 nM and the “Ratio THP(cGAMP) IC50/THP(vir) IC50” value [2] is reported as 33. For the same compound, the IC50 [3] was 5490 nM and the IC50 [4] was 90 nM.
For `C[C@H]1CS(=O)(=O)CC[C@]1(F)c1cc(Cl)cnc1O[C@H]1C[C@@H](C(=O)O)N(c2nc(C(F)(F)F)nc3c2oc2ccccc23)C1` [Example 2.10], the IC50 [1] was 3 nM, the IC50 [2] was 4 nM and the “Ratio THP(cGAMP) IC50/THP(vir) IC50” value [2] was 4605. The IC50 [3] was 18800 nM and the IC50 [4] was 15 nM.
`C#Cc1cnc(O[C@H]2C[C@@H](C(=O)O)N(c3nc(C(F)F)nc4c3oc3ccccc34)C2)c([C@@]2(F)CCS(=O)(=O)C[C@@H]2C)c1` [Example 2.11] was tested, and the IC50 [1] was 2 nM, the IC50 [2] was 4 nM and the “Ratio THP(cGAMP) IC50/THP(vir) IC50” value [2] was >3829. For the same compound, the IC50 [3] was > 16600 nM and the IC50 [4] was 3 nM.
For `C#Cc1cnc(O[C@H]2C[C@@H](C(=O)O)N(c3nc(C(F)(F)F)nc4c3oc3ccccc34)C2)c([C@@]2(F)CCS(=O)(=O)C[C@@H]2C)c1` [Example 2.12], the IC50 [1] was 3 nM, the IC50 [2] was 8 nM and the “Ratio THP(cGAMP) IC50/THP(vir) IC50” value [2] was 2619. For the same compound, the IC50 [3] was 21800 nM and the IC50 [4] was 8 nM.
`O=C(O)[C@@H]1C[C@H](Oc2ncc(Cl)cc2[C@@]2(F)CCN3C(=O)OC[C@H]3C2)CN1c1nc(C(F)F)nc2c1oc1ccccc12` [Example 2.13] was tested, and the IC50 [1] was 7 nM, the IC50 [2] was 818 nM and the “Ratio THP(cGAMP) IC50/THP(vir) IC50” value [2] was >20. The IC50 [3] was > 16600 nM and the IC50 [4] was 582 nM.
For `C#Cc1cnc(O[C@H]2C[C@@H](C(=O)O)N(c3nc(C(F)F)nc4c3oc3ccccc34)C2)c([C@]2(F)CCS(=O)(=O)C[C@H]2C)c1` [Example 2.14], the IC50 [1] was 5 nM, the IC50 [2] was 248 nM and the “Ratio THP(cGAMP) IC50/THP(vir) IC50” value [2] was 31. It also gave an IC50 [3] of 7760 nM and an IC50 [4] of 124 nM.
For `C#Cc1cnc(O[C@H]2C[C@@H](C(=O)O)N(c3nc(C(F)(F)F)nc4c3oc3ccccc34)C2)c([C@]2(F)CCS(=O)(=O)C[C@H]2C)c1` [Example 2.15], the IC50 [1] was 6 nM, the IC50 [2] was 207 nM and the “Ratio THP(cGAMP) IC50/THP(vir) IC50” value [2] was 50. It also gave an IC50 [3] of 10300 nM and an IC50 [4] of 291 nM.
`C[C@H]1COCC[C@]1(F)c1cc(Br)cnc1O[C@H]1C[C@@H](C(=O)O)N(c2nc(C(F)F)nc3c2oc2ccccc23)C1` [Example 2.16] was tested, and the IC50 [1] was 4 nM, the IC50 [2] was 125 nM and the “Ratio THP(cGAMP) IC50/THP(vir) IC50” value [2] was 133. For the same compound, the IC50 [3] was > 16600 nM and the IC50 [4] was 325 nM.
`CC#Cc1cnc(O[C@H]2C[C@@H](C(=O)O)N(c3nc(C(F)(F)F)nc4c3oc3ccccc34)C2)c([C@@]2(F)CCN(C3COC3)C[C@@H]2C)c1` [Example 2.17] was tested, and the IC50 [1] was 96 nM, the IC50 [2] was 382 nM and the “Ratio THP(cGAMP) IC50/THP(vir) IC50” value [2] was 10. It also gave an IC50 [3] of 3920 nM and an IC50 [4] of 287 nM.
In the case of `CC#Cc1cnc(O[C@H]2C[C@@H](C(=O)O)N(c3nc(C(F)F)nc4c3oc3ccccc34)C2)c([C@@]2(F)CCN(C(C)=O)C[C@@H]2C)c1` [Example 2.18], the IC50 [1] is reported as 13 nM, the IC50 [2] is reported as 59 nM and the “Ratio THP(cGAMP) IC50/THP(vir) IC50” value [2] is reported as 215. It also gave an IC50 [3] of 12600 nM and an IC50 [4] of 97 nM.
For `C#Cc1cnc(O[C@H]2C[C@@H](C(=O)O)N(c3nc(C(F)(F)F)nc4c3oc3ccccc34)C2)c([C@@]2(F)CCN(C(C)=O)C[C@@H]2C)c1` [Example 2.19], the IC50 [1] was 5 nM, the IC50 [2] was 23 nM and the “Ratio THP(cGAMP) IC50/THP(vir) IC50” value [2] was 435. The IC50 [3] was 9960 nM and the IC50 [4] was 57 nM.
In the case of `C#Cc1cnc(O[C@H]2C[C@@H](C(=O)O)N(c3nc(C(F)F)nc4c3oc3ccccc34)C2)c([C@@]2(F)CCN(C(C)=O)C[C@@H]2C)c1` [Example 2.20], the IC50 [1] is reported as 4 nM, the IC50 [2] is reported as 17 nM and the “Ratio THP(cGAMP) IC50/THP(vir) IC50” value [2] is reported as 583. The IC50 [3] was 9890 nM and the IC50 [4] was 25 nM.
In the case of `CNc1cc(-c2cnc(O[C@H]3C[C@@H](C(=O)O)N(c4nc(C(F)F)nc5c4oc4ccccc45)C3)c([C@@]3(F)CCOC[C@@H]3C)c2)ccn1` [Example 3.02], the IC50 [1] is reported as 2 nM, the IC50 [2] is reported as 23 nM and the “Ratio THP(cGAMP) IC50/THP(vir) IC50” value [2] is reported as 201. It also gave an IC50 [3] of 4710 nM and an IC50 [4] of 53 nM.
In the case of `COc1cc(-c2cnc(O[C@H]3C[C@@H](C(=O)O)N(c4nc(C(F)F)nc5c4oc4ccccc45)C3)c([C@@]3(F)CCN(C(C)=O)C[C@@H]3C)c2)c(F)cn1` [Example 3.03], the IC50 [1] is reported as 12 nM, the IC50 [2] is reported as 18 nM and the “Ratio THP(cGAMP) IC50/THP(vir) IC50” value [2] is reported as 568. It also gave an IC50 [3] of 10400 nM and an IC50 [4] of 53 nM.
In the case of `CC(=O)N1CC[C@](F)(c2cc(-c3cccc(N(C)C)c3)cnc2O[C@H]2C[C@@H](C(=O)O)N(c3nc(C(F)F)nc4c3oc3ccccc34)C2)[C@@H](C)C1` [Example 3.04], the IC50 [1] is reported as 29 nM, the IC50 [2] is reported as 16 nM and the “Ratio THP(cGAMP) IC50/THP(vir) IC50” value [2] is reported as 650. For the same compound, the IC50 [3] was 10500 nM and the IC50 [4] was 46 nM.
For `C#Cc1cnc(O[C@H]2C[C@@H](C(=O)O)N(c3nc(C(F)(F)F)nc4c3oc3ccccc34)C2)c(C23CCOCC2C3)c1` (stereo partly drawn) [Example 4.01, (2S,4S)-4-[(5-ethynyl-3-{3-oxabicyclo[4.1.0]heptan-6-yl}pyridin-2-yl)oxy]-1-[4-(trifluoromethyl)-8-oxa-3,5-diazatricyclo[7.4.0.0^2,7]trideca-1(13),2,4,6,9,11-hexaen-6-yl]pyrrolidine-2-carboxylic acid], the IC50 [1] was 8 nM, the IC50 [2] was 784 nM and the “Ratio THP(cGAMP) IC50/THP(vir) IC50” value [2] was >21. For the same compound, the IC50 [3] was > 16600 nM and the IC50 [4] was 1500 nM.
With `O=C(O)[C@@H]1C[C@H](Oc2ncc(-n3cc(Cl)cn3)cc2C2(F)CCOCC2)CN1c1nc(C(F)F)nc2c1oc1ccccc12` [Example 5.01, (2S,4S)-4-{[5-(4-chloro-1H-pyrazol-1-yl)-3-(4-fluorooxan-4-yl)pyridin-2-yl]oxy}-1-[4-(difluoromethyl)-8-oxa-3,5-diazatricyclo[7.4.0.0^2,7]trideca-1(13),2,4,6,9,11-hexaen-6-yl]pyrrolidine-2-carboxylic acid] the IC50 [1] was 12 nM, the IC50 [2] was 1000 nM and the “Ratio THP(cGAMP) IC50/THP(vir) IC50” value [2] was >17. For the same compound, the IC50 [3] was > 16600 nM and the IC50 [4] was 2890 nM.
